# Test results from patent publication US7858657B2 (Proix Pharmaceutical Corp., priority 2004, dated 2010).
# Values joined by “and” are separate entries in the source; they are usually repeats but may differ in a detail not shown here. Identical values can stand only once. Counter-ions that a name gives are not always drawn. Marks after values point to notes of the source that are not given here.
# Key:
# [1] = Glucose tolerance studies; settings: mean ± SE of 4 mice
# Experimental: Glucose Tolerance Studies. Female C5781/6 mice were fasted overnight and administered a single dose of D(+) glucose (1 mg/kg) as a 0.1 g/ml solution po. […] Human recombinant insulin was administered at 0.075:g/kg ip (26) at the same time as glucose administration.
# Values are the mean±SE of 4 mice per group.
# OvCaR-3 ovarian [2] = assay: Antitumor activity of wortmannin analogs, OvCaR-3 ovarian tumor (Table 1); type: in vivo; settings: initial tumor vol 120 mm^3; for T/C % (optimal test/control): day 40
# HT-29 colon [3] = assay: Antitumor activity of wortmannin analogs, HT-29 colon tumor (Table 1); type: in vivo; settings: for T/C % (optimal test/control): day 16
# A-549 lung = assay: Antitumor activity of cytotoxic drugs alone or combined with PX-866, A-549 lung (Table 2); type: in vivo; settings: size 300 mm^3; cisplatin ip 1 mg/kg QD × 5
# HT-29 colon [4] = assay: Antitumor activity of cytotoxic drugs alone or combined with PX-866, HT-29 colon (Table 2); type: in vivo; settings: size 150 mm^3; cisplatin ip 2.5 mg/kg Q2D × 3
# [5] = tested on: A-549 human nsc lung cancer xenografts; assay: Antitumor studies, PX-866 and gefitinib in A-549 xenografts; type: in vivo, scid mice
# Experimental: Antitumor Studies. […] When the tumors reached 100 or 600 mm3 the mice were stratified into groups of 8 animals having approximately equal mean tumor volumes and drug administration was started. […] Animals were weighed weekly and tumor diameters were measured twice weekly at right angles (d short and d long) with electronic calipers and tumor volumes calculated by the formula volume=(dshort)2×(dlong))2. When the tumor reached 2,000 mm3 or more, or became necrotic the animals were euthanized.
# In vivo antitumor studies. […] Tumors were allowed to grow to a mean volume of […] before drug treatment was started every other day for 14 doses. Antitumor activity is expressed as the % volume of the treated tumor/control tumor (T/C %) at the end of the dosing period. There were 8 mice in each group and all differences are p<0.01.
# [6] = tested on: tumor phospho-Akt (A-549 tumor xenografts); assay: Pharmacodynamic studies, tumor phospho-Akt in A-549 xenografts; type: in vivo, scid mice; settings: gefitinib 75 mg/kg po every other day for 5 days
# From the text: Pharmacodynamic Studies. […] Tumor Akt activity was expressed as the ratio of phospho-Ser473-Akt to total Akt.
# Panc-1 pancreatic = assay: Antitumor activity of cytotoxic drugs alone or combined with PX-866, Panc-1 pancreatic (Table 2); type: in vivo; settings: size 75 mm^3; gemcitabine ip 150 mg/kg Q3D × 3
# OvCaR-3 ovarian [7] = assay: Antitumor activity of cytotoxic drugs alone or combined with PX-866, OvCar-3 ovarian (Table 2); type: in vivo; settings: size 110 mm^3; taxol ip 12 mg/kg Q2D × 5
# p110α/p85α = molecular target: T1, p110α/p85α (Bos taurus, UniProt P32871); assay: Inhibition of recombinant PtdIns-3-kinase, [32P]-ATP dependent phosphorylation of PtdIns; type: biochemical, bovine
# T1 construct: purchased Upstate (Charlottesville, Va.)
# From the text: Materials and Methods. Compounds. […] Rabbit purified anti-phosphoSer473-Akt antibody, anti-Akt antibody, antiphospho Tyr1086-EGF-receptor antibody and anti-EGFR antibody were obtained from Cell Signaling Technology (Beverly, Mass.). Human recombinant p110α/p85α, p110β/p85α, p120 (and p110*/p85α PtdIns-3-kinases were obtained from Upstate (Charlottesville, Va.). Metformin hydrochloride was obtained from Spectrum Chemical (Gardena, Calif.), pioglitazone hydrochloride and recombinant human insulin from Sigma Chemical (St. Louis).
# Measurement of PtdIns-3-kinase.
# [8] = initial tumor vol 170 mm^3, 13 mg/kg/day ip Q1D × 9
# [9] = initial tumor vol 180 mm^3, 0.75 mg/kg/day ip Q1D × 9
# T1 sequence (P32871 whole entry): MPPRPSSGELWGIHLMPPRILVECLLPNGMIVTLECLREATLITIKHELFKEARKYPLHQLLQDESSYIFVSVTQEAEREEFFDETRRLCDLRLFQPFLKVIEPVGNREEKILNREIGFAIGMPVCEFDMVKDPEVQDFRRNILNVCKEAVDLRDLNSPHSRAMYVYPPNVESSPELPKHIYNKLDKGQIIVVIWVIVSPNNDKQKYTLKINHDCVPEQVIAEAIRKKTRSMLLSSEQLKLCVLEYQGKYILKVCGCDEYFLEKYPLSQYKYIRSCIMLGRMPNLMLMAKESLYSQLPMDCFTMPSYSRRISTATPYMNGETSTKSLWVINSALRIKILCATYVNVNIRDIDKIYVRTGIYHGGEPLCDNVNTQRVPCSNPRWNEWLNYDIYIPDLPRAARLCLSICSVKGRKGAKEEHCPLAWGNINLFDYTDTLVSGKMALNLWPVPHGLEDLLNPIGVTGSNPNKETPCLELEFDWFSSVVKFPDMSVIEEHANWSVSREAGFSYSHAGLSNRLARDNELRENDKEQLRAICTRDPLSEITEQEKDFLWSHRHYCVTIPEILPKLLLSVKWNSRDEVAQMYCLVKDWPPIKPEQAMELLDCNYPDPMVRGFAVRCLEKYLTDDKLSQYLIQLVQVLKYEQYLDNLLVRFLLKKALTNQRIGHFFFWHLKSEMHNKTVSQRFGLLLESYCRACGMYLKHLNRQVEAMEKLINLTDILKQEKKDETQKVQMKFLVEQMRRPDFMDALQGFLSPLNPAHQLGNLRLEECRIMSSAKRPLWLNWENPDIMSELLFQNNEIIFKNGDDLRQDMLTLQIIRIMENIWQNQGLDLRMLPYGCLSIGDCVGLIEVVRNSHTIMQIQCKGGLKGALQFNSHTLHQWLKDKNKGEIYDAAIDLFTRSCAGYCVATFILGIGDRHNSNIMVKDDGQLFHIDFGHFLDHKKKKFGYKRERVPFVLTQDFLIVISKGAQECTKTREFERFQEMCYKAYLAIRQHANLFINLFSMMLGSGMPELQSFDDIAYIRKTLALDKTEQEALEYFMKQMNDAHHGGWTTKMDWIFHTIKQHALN
# T1 sequence (P23727 2-724 partner): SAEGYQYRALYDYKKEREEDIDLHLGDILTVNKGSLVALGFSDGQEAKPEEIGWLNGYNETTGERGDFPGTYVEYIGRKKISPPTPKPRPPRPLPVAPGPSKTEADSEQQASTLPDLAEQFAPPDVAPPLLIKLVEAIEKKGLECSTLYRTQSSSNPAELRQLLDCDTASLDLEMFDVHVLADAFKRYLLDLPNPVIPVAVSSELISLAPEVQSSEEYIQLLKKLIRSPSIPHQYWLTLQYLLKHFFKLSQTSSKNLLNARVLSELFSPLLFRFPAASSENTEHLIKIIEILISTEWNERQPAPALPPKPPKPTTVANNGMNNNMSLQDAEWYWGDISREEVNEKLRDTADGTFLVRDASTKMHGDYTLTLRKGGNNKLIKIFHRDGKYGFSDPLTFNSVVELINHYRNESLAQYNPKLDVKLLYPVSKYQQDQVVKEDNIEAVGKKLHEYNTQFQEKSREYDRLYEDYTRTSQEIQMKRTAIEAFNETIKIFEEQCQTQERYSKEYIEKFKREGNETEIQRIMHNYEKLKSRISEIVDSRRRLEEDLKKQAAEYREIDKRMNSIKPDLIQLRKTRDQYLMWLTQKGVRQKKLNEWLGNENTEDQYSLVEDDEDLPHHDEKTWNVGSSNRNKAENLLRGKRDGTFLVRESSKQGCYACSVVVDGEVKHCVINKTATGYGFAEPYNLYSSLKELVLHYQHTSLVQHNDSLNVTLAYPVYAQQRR
molecule,measurement,setting,value
"CN(C)C(=N)N=C(N)N [Metformin, Metformin hydrochloride, reference compound]",plasma glucose AUC0-180 min,"[1]; Metformin 250 mg/kg IP QD × 5, without PX-866",367 ± 46 mg·min/mL
same,plasma glucose AUC0-180 min,"[1]; Metformin 250 mg/kg IP QD × 5 with PX-866 10 mg/kg po, hydrochloride",537 ± 4^b mg · min · ml^−1
same,plasma glucose AUC0-180 min,"[1]; Metformin 250 mg/kg IP QD × 5 with PX-866 10 mg/kg po, listed as metformin, hydrochloride",had no effect
"COC[C@@H]1OC(=O)/C(=C/N2CCCC2)C2=C(O)C(=O)C3=C([C@H](OC(C)=O)C[C@]4(C)C(=O)CC[C@H]34)[C@]21C [PX-867, Acetic acid 6-hydroxy-1α-methoxymethyl-10β,13β-dimethyl-3,7,17-trioxo-4-pyrrolidin-1-yl-methylene-1,3,4,7,10,11β,12,13,14α,15,16,17-dodecahydro-2-oxa-cyclopenta[α]phenanthren-11-yl]",Growth Delay,OvCaR-3 ovarian [2]; 13 mg/kg/day ip Q1D × 9,6 days
same,Log10 cell kill,OvCaR-3 ovarian [2]; 13 mg/kg/day ip Q1D × 9,0.6
same,T/C % (optimal test/control),OvCaR-3 ovarian [2]; 13 mg/kg/day ip Q1D × 9,41 (40) %
same,Growth Delay,HT-29 colon [3]; [8],0 days
same,Log10 cell kill,HT-29 colon [3]; [8],0
same,T/C % (optimal test/control),HT-29 colon [3]; [8],80 (16) %
"CCc1ccc(CCOc2ccc(CC3SC(=O)NC3=O)cc2)nc1 (stereo not drawn) [Pioglitazone, pioglitazone hydrochloride, reference compound]",plasma glucose AUC0-180 min,"[1]; Pioglitazone 10 mg/kg ip QD × 7, without PX-866",274 ± 3 mg·min/mL
same,plasma glucose AUC0-180 min,"[1]; Pioglitazone 10 mg/kg ip QD × 7 with PX-866 10 mg/kg po, hydrochloride",340 ± 39^c mg · min · ml^−1
"N.N.[Cl][Pt][Cl] [cisplatin, reference compound]",Alone Growth delay days,A-549 lung,1 days
same,Alone TGI %,A-549 lung,16%
same,Alone log cell kill,A-549 lung,0.1
same,Alone Growth delay days,HT-29 colon [4],0 days
same,Alone TGI %,HT-29 colon [4],11%
same,Alone log cell kill,HT-29 colon [4],0
"COc1cc2ncnc(Nc3ccc(F)c(Cl)c3)c2cc1OCCCN1CCOCC1 [gefitinib, reference compound]",tumor T/Cs,"[5]; administered long term, single agent (discussion)",around 50%
same,Tumor T/C %,"[5]; gefitinib po 75 mg/kg QOD × 14, 100 mm3 tumors, end of dosing period, 75 mg/kg",51% and 50.8%
same,effect upon tumor phospho-Akt,[6],no significant effect
"Nc1ccn([C@@H]2O[C@H](CO)[C@@H](O)C2(F)F)c(=O)n1 [gemcitabine, reference compound]",Alone Growth delay days,Panc-1 pancreatic,7 days
same,Alone TGI %,Panc-1 pancreatic,38%
same,Alone log cell kill,Panc-1 pancreatic,0.2
"CC(=O)O[C@H]1C(=O)[C@@]2(C)[C@H]([C@H](OC(=O)c3ccccc3)[C@]3(O)C[C@H](OC(=O)[C@H](O)[C@@H](NC(=O)c4ccccc4)c4ccccc4)C(C)=C1C3(C)C)[C@]1(OC(C)=O)CO[C@@H]1C[C@@H]2O [taxol, paclitaxel, reference compound]",Alone Growth delay days,OvCaR-3 ovarian [7],13 days
same,Alone TGI %,OvCaR-3 ovarian [7],58%
same,Alone log cell kill,OvCaR-3 ovarian [7],1.0
"COC[C@H]1OC(=O)c2coc3c2[C@@]1(C)C1=C(C3=O)[C@@H]2CCC(=O)[C@@]2(C)C[C@H]1OC(C)=O [wortmannin, reference compound]",Growth Delay,OvCaR-3 ovarian [2]; 0.75 mg/kg/day ip Q1D × 9,5 days
same,Log10 cell kill,OvCaR-3 ovarian [2]; 0.75 mg/kg/day ip Q1D × 9,0.5
same,T/C % (optimal test/control),OvCaR-3 ovarian [2]; 0.75 mg/kg/day ip Q1D × 9,47 (40) %
same,Growth Delay,HT-29 colon [3]; [9],5 days
same,Log10 cell kill,HT-29 colon [3]; [9],0.3
same,T/C % (optimal test/control),HT-29 colon [3]; [9],36 (16) %
same,IC50,p110α/p85α,4 nM
Insulin: recombinant human insulin from Sigma Chemical,plasma glucose AUC0-180 min,[1]; Insulin 0.075 μ/kg ip with PX-866 10 mg/kg po,64 ± 5^ mg · min · ml^−1
same,plasma glucose AUC0-180 min,"[1]; Insulin 0.075 μ/kg ip with PX-866 10 mg/kg po, listed as insulin",overcame the increase in plasma glucose caused by PX-866
same,plasma glucose AUC0-180 min,"[1]; Insulin 0.075 μ/kg ip, without PX-866",64 ± 25 mg·min/mL
